We go through eleven compounds from ChEMBL document CHEMBL1149880, “Xanthones from Gentianella amarella ssp. acuta with acetylcholinesterase and monoamine oxidase inhibitory activities” (J Nat Prod, 2008).

In assay [1] the target is T1, Amine oxidase [flavin-containing] B (Homo sapiens, UniProt P27338).
T1 sequence (P27338 whole entry): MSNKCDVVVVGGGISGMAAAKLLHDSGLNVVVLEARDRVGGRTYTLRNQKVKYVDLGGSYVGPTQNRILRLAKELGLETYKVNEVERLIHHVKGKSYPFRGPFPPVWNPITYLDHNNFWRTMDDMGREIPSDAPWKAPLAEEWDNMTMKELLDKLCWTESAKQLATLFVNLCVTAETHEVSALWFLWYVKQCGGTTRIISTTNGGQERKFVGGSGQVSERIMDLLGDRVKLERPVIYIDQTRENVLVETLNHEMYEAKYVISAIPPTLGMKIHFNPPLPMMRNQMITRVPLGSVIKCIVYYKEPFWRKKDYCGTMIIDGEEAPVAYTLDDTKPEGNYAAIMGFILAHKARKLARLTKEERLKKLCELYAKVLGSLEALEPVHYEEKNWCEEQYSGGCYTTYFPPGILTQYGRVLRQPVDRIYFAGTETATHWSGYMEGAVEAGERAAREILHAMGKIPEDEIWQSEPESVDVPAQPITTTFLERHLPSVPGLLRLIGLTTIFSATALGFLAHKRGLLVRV
The assay can be described thus: Inhibition of monoamine oxidase B at 10 uM. Particulars: read-out: INH.

The target of assay [2] is T2, Amine oxidase [flavin-containing] A (Homo sapiens, UniProt P21397).
T2 sequence (P21397 whole entry): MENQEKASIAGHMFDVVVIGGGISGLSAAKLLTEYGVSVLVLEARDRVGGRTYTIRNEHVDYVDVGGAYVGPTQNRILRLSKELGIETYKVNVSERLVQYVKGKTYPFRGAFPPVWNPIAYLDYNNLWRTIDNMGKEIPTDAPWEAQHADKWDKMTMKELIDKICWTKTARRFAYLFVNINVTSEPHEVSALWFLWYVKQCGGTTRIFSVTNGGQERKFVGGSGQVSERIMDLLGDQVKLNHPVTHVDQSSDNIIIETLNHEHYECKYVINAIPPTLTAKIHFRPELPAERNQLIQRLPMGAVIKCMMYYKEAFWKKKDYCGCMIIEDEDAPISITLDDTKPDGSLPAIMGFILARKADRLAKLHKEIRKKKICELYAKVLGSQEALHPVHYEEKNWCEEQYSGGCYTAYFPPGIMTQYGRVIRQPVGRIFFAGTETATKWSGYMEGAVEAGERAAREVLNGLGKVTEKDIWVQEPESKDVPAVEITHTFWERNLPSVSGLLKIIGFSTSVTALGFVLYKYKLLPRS
Nature of the assay: Inhibition of monoamine oxidase A at 10 uM. Particulars: read-out: INH.

Assay [3] addresses Acetylcholinesterase (Homo sapiens) (UniProt P22303). To be noted: at 10 µM.
Description: Inhibition of acetylcholinesterase at 10 uM by Ellman's method

Structures are written as SMILES.

Acetylcholinesterase (Homo sapiens), sequence (P22303 whole entry): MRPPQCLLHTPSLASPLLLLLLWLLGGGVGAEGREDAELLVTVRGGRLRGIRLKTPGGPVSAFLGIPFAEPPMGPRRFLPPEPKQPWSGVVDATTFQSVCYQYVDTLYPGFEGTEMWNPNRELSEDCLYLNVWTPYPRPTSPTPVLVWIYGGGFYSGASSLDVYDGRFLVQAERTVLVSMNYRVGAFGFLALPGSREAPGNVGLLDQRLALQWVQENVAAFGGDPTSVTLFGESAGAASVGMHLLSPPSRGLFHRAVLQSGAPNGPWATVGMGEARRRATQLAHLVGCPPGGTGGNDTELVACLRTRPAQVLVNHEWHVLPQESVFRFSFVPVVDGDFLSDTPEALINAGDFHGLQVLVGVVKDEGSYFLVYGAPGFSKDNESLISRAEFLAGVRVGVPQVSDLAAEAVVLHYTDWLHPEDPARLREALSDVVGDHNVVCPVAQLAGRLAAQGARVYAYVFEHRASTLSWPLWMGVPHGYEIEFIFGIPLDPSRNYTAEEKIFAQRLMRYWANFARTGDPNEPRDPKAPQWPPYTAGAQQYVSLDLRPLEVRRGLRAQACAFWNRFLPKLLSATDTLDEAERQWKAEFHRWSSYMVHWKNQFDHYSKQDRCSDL

As for `COc1ccc(O[C@@H]2O[C@H](CO)[C@@H](O)[C@H](O)[C@H]2O)c2c(=O)c3c(O)c(-c4cc(O)c5oc6cc(O)cc(O)c6c(=O)c5c4O)c(O)cc3oc12`, the inhibition at 10 µM in assay [1] worked out at 39.1%; in assay [2], 21.4%. In assay [3], this compound showed an inhibition of 12.3%.
For the compound `COc1ccc(O)c2c(=O)c3c(O)cc(O[C@@H]4O[C@H](CO)[C@@H](O)[C@H](O)[C@H]4O)c(OC)c3oc12`, the inhibition at 10 µM was 47.8% in assay [1] and 40.2% in assay [2]. For the same compound, the inhibition in assay [3] worked out at 17.6%.
On to `O=c1c2c(O)c(-c3cc(O)c4oc5cc(O)cc(O)c5c(=O)c4c3O)c(O)cc2oc2c(O)ccc(O)c12`, for which the results for the inhibition at 10 µM in assay [1] and in assay [2] were 41.1% and 14.8%, respectively. Moreover, the inhibition in assay [3] is 20.9%.
Turning to `COc1c(O)ccc2c(=O)c3c(OC4O[C@H](CO)[C@@H](O)[C@H](O)[C@H]4O)cc(O)c(OC)c3oc12` (some centres not stated), the results for the inhibition at 10 µM in assay [1] and in assay [2] were 70.5% and 15%, respectively. Also, the inhibition in assay [3] came to 1.5%.
The matching figures for `COc1cc(O)c2c(=O)c3c(O)ccc(O)c3oc2c1` [BELLIDIFOLIN]: 65.2%, 98.9% and 21.9%.
The matching figures for `O=c1c2c(O)cc(O)cc2oc2c(O)ccc(O)c12` [DEMETHYLBELLIDIFOLIN]: 59%, 90.5% and 17.5%.
Take `O=c1c2c(O)cc(O)cc2oc2c(O)ccc(O[C@@H]3O[C@H](CO)[C@@H](O)[C@H](O)[C@H]3O)c12` [NORSWERTIANOLIN]: the results for the inhibition at 10 µM in assay [1] and in assay [2] were 28.9% and 12.2%, respectively. The same compound came in with an inhibition in assay [3] of 4.4%.
On to `C#CCN(C)Cc1ccccc1` [PARGYLINE], for which the inhibition at 10 µM was 98.2% in assay [1] and 60% in assay [2].
Consider `COc1cc(O)c2c(=O)c3c(O[C@@H]4O[C@H](CO)[C@@H](O)[C@H](O)[C@H]4O)ccc(O)c3oc2c1` [SWERTIANOLIN], for which the values for the inhibition at 10 µM in assay [1] and in assay [2] were 93.6% and 43.8%, respectively. In assay [3], this compound gave an inhibition of 9.8%.
The matching figures for `COc1cc(O)c2c(=O)c3c(O)c(O[C@@H]4O[C@H](CO)[C@@H](O)[C@H](O)[C@H]4O)ccc3oc2c1OC` [TRIPTEXANTHOSIDE C]: 38.8%, 13.4% and 43.7%.
On to `COc1cc(O)c2c(=O)c3cc(O[C@@H]4O[C@H](CO)[C@@H](O)[C@H](O)[C@H]4O)ccc3oc2c1OC` [VERATRILOSIDE], for which the inhibition at 10 µM in assay [1] was 56%; in assay [2], 19.4%. In assay [3], this compound displayed an inhibition of 28.2%.
